# In US9822114B2, “Tricyclic oxazolidinone antibiotic compounds” (Idorsia Pharmaceuticals Ltd, priority 2008, dated 2017):
# Test system: M. catarrhalis A894
# Assay: Minimal inhibitory concentration (MIC), microdilution method in cation-adjusted Mueller-Hinton Broth (CLSI M7-A7)
# Assay type: cell-based
# Conditions: Moraxella catarrhalis, strain A894
# Procedure: Minimal inhibitory concentrations (MICs; mg/1) were determined in cation-adjusted Mueller-Hinton Broth by a microdilution method following the description given in “Methods for Dilution Antimicrobial Susceptibility Tests for Bacteria that Grow Aerobically”, Approved standard, 7th ed., Clinical and Laboratory Standards Institute (CLSI) Document M7-A7, Wayne, Pa., USA, 2006.
row,Structure (SMILES),MIC [µg/mL]
1,"O=C1CSc2ccc(N3C[C@H](CNCC4Cn5c(=O)ccc6ccc(F)c4c65)OC3=O)cc2N1 (mixture of isomers) [Example 30, (1RS)-9-fluoro-1-({[(S)-2-oxo-3-(3-oxo-3,4-dihydro-2H-benzo[1,4]thiazin-6-yl)-oxazolidin-5-ylmethyl]-amino}-methyl)-1,2-dihydro-pyrrolo[3,2,1-ij]quinolin-4-one]",0.031
2,"O=C1O[C@H](CNCC2Cn3c(=O)ccc4ccc(F)c2c43)CN1c1ccc2c(c1)OCCO2 (mixture of isomers) [Example 31, (1RS)-1-({[(R)-3-(2,3-dihydro-benzo[1,4]dioxin-6-yl)-2-oxo-oxazolidin-5-ylmethyl]-amino}-methyl)-9-fluoro-1,2-dihydro-pyrrolo[3,2,1-ij]quinolin-4-one]",16
3,"O=C1COc2ccc(N3C[C@@H](CNCC4Cn5c(=O)ccc6ccc(F)c4c65)OC3=O)cc2N1 (mixture of isomers) [Example 32, (1RS)-9-fluoro-1-({[(R)-2-oxo-3-(3-oxo-3,4-dihydro-2H-benzo[1,4]oxazin-6-yl)-oxazolidin-5-ylmethyl]-amino}-methyl)-1,2-dihydro-pyrrolo[3,2,1-ij]quinolin-4-one]",0.031
4,"Cc1ccc(N2C[C@@H](CNCC3Cn4c(=O)ccc5ccc(F)c3c54)OC2=O)cc1F (mixture of isomers) [Example 33, (1RS)-9-fluoro-1-({[(R)-3-(3-fluoro-4-methyl-phenyl)-2-oxo-oxazolidin-5-ylmethyl]-amino}-methyl)-1,2-dihydro-pyrrolo[3,2,1-ij]quinolin-4-one]",16
5,"O=C1CSc2ccc(N3C[C@@H](CCNCC4Cn5c(=O)ccc6nccc4c65)OC3=O)cc2N1 (mixture of isomers) [Example 34, (RS)-4-({2-[(R)-2-oxo-3-(3-oxo-3,4-dihydro-2H-benzo[1,4]thiazin-6-yl)-oxazolidin-5-yl]-ethylamino}-methyl)-4,5-dihydro-pyrrolo[3,2,1-de][1,5]naphthyridin-7-one]",≤ 0.031
6,"O=C1CSc2ccc(N3C[C@@H](CCCNC4Cn5c(=O)ccc6cccc4c65)OC3=O)cc2N1 (mixture of isomers) [Example 35, (RS)-1-{3-[(R)-2-oxo-3-(3-oxo-3,4-dihydro-2H-benzo[1,4]thiazin-6-yl)-oxazolidin-5-yl]-propylamino}-1,2-dihydro-pyrrolo[3,2,1-ij]quinolin-4-one]",≤ 0.031
7,"CCCc1ccc(N2C[C@@H](CNCC3Cn4c(=O)ccc5ccc(F)c3c54)OC2=O)cc1 (mixture of isomers) [Example 37, (RS)-9-fluoro-1-({[(R)-2-oxo-3-(4-propyl-phenyl)-oxazolidin-5-ylmethyl]-amino}-methyl)-1,2-dihydro-pyrrolo[3,2,1-ij]quinolin-4-one]",1
8,"CCCCc1ccc(N2C[C@@H](CNCC3Cn4c(=O)ccc5ccc(F)c3c54)OC2=O)cc1 (mixture of isomers) [Example 38, (RS)-1-({[(R)-3-(4-butyl-phenyl)-2-oxo-oxazolidin-5-ylmethyl]-amino}-methyl)-9-fluoro-1,2-dihydro-pyrrolo[3,2,1-ij]quinolin-4-one]",16
9,"CCOc1ccc(N2C[C@@H](CCNCC3Cn4c(=O)ccc5ccc(F)c3c54)OC2=O)cc1 (mixture of isomers) [Example 44, (RS)-1-({2-[(R)-3-(4-ethoxy-phenyl)-2-oxo-oxazolidin-5-yl]-ethylamino}-methyl)-9-fluoro-1,2-dihydro-pyrrolo[3,2,1-ij]quinolin-4-one]",0.125
10,"CCCc1ccc(N2C[C@@H](CCNCC3Cn4c(=O)ccc5ccc(F)c3c54)OC2=O)cc1 (mixture of isomers) [Example 45, (RS)-9-fluoro-1-({2-[(R)-2-oxo-3-(4-propyl-phenyl)-oxazolidin-5-yl]-ethylamino}-methyl)-1,2-dihydro-pyrrolo[3,2,1-ij]quinolin-4-one]",0.063
11,"O=C1O[C@H](CCNCC2Cn3c(=O)ccc4ccc(F)c2c43)CN1c1ccc2c(c1)OCCO2 (mixture of isomers) [Example 46, (RS)-1-({2-[(R)-3-(2,3-dihydro-benzo[1,4]dioxin-6-yl)-2-oxo-oxazolidin-5-yl]-ethylamino}-methyl)-9-fluoro-1,2-dihydro-pyrrolo[3,2,1-ij]quinolin-4-one]",≤ 0.031
12,"O=C1CSc2ccc(N3C[C@@H](CCCNCC4Cn5c(=O)ccc6ccc(F)c4c65)OC3=O)cc2N1 (mixture of isomers) [Example 51, (RS)-9-fluoro-1-({3-[(R)-2-oxo-3-(3-oxo-3,4-dihydro-2H-benzo[1,4]thiazin-6-yl)-oxazolidin-5-yl]-propylamino}-methyl)-1,2-dihydro-pyrrolo[3,2,1-ij]quinolin-4-one]",≤ 0.031
13,"O=C1COc2ccc(N3C[C@@H](CCCNCC4Cn5c(=O)ccc6ccc(F)c4c65)OC3=O)cc2N1 (mixture of isomers) [Example 52, (RS)-9-fluoro-1-({3-[(R)-2-oxo-3-(3-oxo-3,4-dihydro-2H-benzo[1,4]oxazin-6-yl)-oxazolidin-5-yl]-propylamino}-methyl)-1,2-dihydro-pyrrolo[3,2,1-ij]quinolin-4-one]",≤ 0.031
14,"O=C1CSc2ccc(N3C[C@H](CCNCC4Cn5c(=O)cnc6cccc4c65)OC3=O)cc2N1 (mixture of isomers) [Example 56, (RS)-6-({2-[(S)-2-oxo-3-(3-oxo-3,4-dihydro-2H-benzo[1,4]thiazin-6-yl)-oxazolidin-5-yl]-ethylamino}-methyl)-5,6-dihydro-pyrrolo[1,2,3-de]quinoxalin-3-one]",≤ 0.031
15,"CCCc1ccc(N2C[C@@H](CCNC3Cn4c(=O)ccc5ccc(F)c3c54)OC2=O)cc1 (mixture of isomers) [Example 59, (RS)-9-fluoro-1-{2-[(R)-2-oxo-3-(4-propyl-phenyl)-oxazolidin-5-yl]-ethylamino}-1,2-dihydro-pyrrolo[3,2,1-ij]quinolin-4-one]",4
16,"O=C1O[C@@H](CCNCC2Cn3c(=O)ccc4ccc(F)c2c43)CN1c1ccc2c(c1)OCCO2 (mixture of isomers) [Example 60, (RS)-1-({2-[(S)-3-(2,3-dihydro-benzo[1,4]dioxin-6-yl)-2-oxo-oxazolidin-5-yl]-ethylamino}-methyl)-9-fluoro-1,2-dihydro-pyrrolo[3,2,1-ij]quinolin-4-one]",≤ 0.031
17,"O=C1CSc2ccc(N3C[C@@H](CNCC4Cn5c(=O)ccc6cccc4c65)OC3=O)cc2N1 (mixture of isomers) [Example 63, (RS)-1-({[(R)-2-oxo-3-(3-oxo-3,4-dihydro-2H-benzo[1,4]thiazin-6-yl)-oxazolidin-5-ylmethyl]-amino}-methyl)-1,2-dihydro-pyrrolo[3,2,1-ij]quinolin-4-one]",0.031
18,"O=C1CSc2ccc(N3C[C@@H](CN(CCCO)CCC4Cn5c(=O)ccc6ccc(F)c4c65)OC3=O)cc2N1 (mixture of isomers) [Example 68, (RS)-9-fluoro-1-(2-{(3-hydroxy-propyl)-[(R)-2-oxo-3-(3-oxo-3,4-dihydro-2H-benzo[1,4]thiazin-6-yl)-oxazolidin-5-ylmethyl]-amino}-ethyl)-1,2-dihydro-pyrrolo[3,2,1-ij]quinolin-4-one]",≤ 0.031
19,"O=C1CSc2ccc(N3C[C@@H](CN(CCO)CCC4Cn5c(=O)ccc6ccc(F)c4c65)OC3=O)cc2N1 (mixture of isomers) [Example 69, (RS)-9-fluoro-1-(2-{(2-hydroxy-ethyl)-[(R)-2-oxo-3-(3-oxo-3,4-dihydro-2H-benzo[1,4]thiazin-6-yl)-oxazolidin-5-ylmethyl]-amino}-ethyl)-1,2-dihydro-pyrrolo[3,2,1-ij]quinolin-4-one]",≤ 0.031
20,"O=C1COc2ccc(N3C[C@@H](CCCNC4Cn5c(=O)ccc6ccc(F)c4c65)OC3=O)nc2N1 (mixture of isomers) [Example 70, (RS)-9-fluoro-1-{3-[(R)-2-oxo-3-(3-oxo-3,4-dihydro-2H-pyrido[3,2-b][1,4]oxazin-6-yl)-oxazolidin-5-yl]-propylamino}-1,2-dihydro-pyrrolo[3,2,1-ij]quinolin-4-one]",≤ 0.031
21,"O=C1CSc2ccc(N3C[C@H](CNCC4Cn5c(=O)ccc6cccc4c65)OC3=O)cc2N1 (mixture of isomers) [Example 81, (RS)-1-({[(S)-2-oxo-3-(3-oxo-3,4-dihydro-2H-benzo[1,4]thiazin-6-yl)-oxazolidin-5-ylmethyl]-amino}-methyl)-1,2-dihydro-pyrrolo[3,2,1-ij]quinolin-4-one]",≤ 0.031
22,"O=C1COc2ccc(N3C[C@@H](CNCC4Cn5c(=O)ccc6cccc4c65)OC3=O)cc2N1 (mixture of isomers) [Example 82, (RS)-1-({[(R)-2-oxo-3-(3-oxo-3,4-dihydro-2H-benzo[1,4]oxazin-6-yl)-oxazolidin-5-ylmethyl]-amino}-methyl)-1,2-dihydro-pyrrolo[3,2,1-ij]quinolin-4-one]",0.25
23,"O=C1CSc2ccc(N3C[C@H](CCNC4Cn5c(=O)ccc6ncc(F)c4c65)OC3=O)cc2N1 (mixture of isomers) [Example 84, (RS)-3-fluoro-4-{2-[(S)-2-oxo-3-(3-oxo-3,4-dihydro-2H-benzo[1,4]thiazin-6-yl)-oxazolidin-5-yl]-ethylamino}-4,5-dihydro-pyrrolo[3,2,1-de][1,5]naphthyridin-7-one]",0.063
24,"O=C1CSc2ccc(N3C[C@H](CCN(CCCO)CC4Cn5c(=O)ccc6ccc(F)c4c65)OC3=O)cc2N1 (mixture of isomers) [Example 90, (RS)-9-fluoro-1-[((3-hydroxy-propyl)-{2-[(S)-2-oxo-3-(3-oxo-3,4-dihydro-2H-benzo[1,4]thiazin-6-yl)-oxazolidin-5-yl]-ethyl}-amino)-methyl]-1,2-dihydro-pyrrolo[3,2,1-ij]quinolin-4-one]",≤ 0.031
25,"O=C1CSc2ccc(N3C[C@H](CCN(CCO)CC4Cn5c(=O)ccc6ccc(F)c4c65)OC3=O)cc2N1 (mixture of isomers) [Example 91, (RS)-9-fluoro-1-[((2-hydroxy-ethyl)-{2-[(S)-2-oxo-3-(3-oxo-3,4-dihydro-2H-benzo[1,4]thiazin-6-yl)-oxazolidin-5-yl]-ethyl}-amino)-methyl]-1,2-dihydro-pyrrolo[3,2,1-ij]quinolin-4-one]",≤ 0.031
